ChEMBL document CHEMBL1141976, “Discovery of 2,3,5-trisubstituted pyridine derivatives as potent Akt1 and Akt2 dual inhibitors” (Bioorg Med Chem Lett, 2005)

How the values were obtained:
[1] = molecular target: RAC-alpha serine/threonine-protein kinase (Homo sapiens, UniProt P31749); assay: Inhibitory concentration against Akt1 kinase
[2] = molecular target: RAC-gamma serine/threonine-protein kinase (Homo sapiens, UniProt Q9Y243); assay: Inhibitory concentration against Akt3 kinase
[3] = Inhibitory concentration against Akt2 kinase; set-up: species or system Homo sapiens

Chain of RAC-alpha serine/threonine-protein kinase (P31749 whole entry): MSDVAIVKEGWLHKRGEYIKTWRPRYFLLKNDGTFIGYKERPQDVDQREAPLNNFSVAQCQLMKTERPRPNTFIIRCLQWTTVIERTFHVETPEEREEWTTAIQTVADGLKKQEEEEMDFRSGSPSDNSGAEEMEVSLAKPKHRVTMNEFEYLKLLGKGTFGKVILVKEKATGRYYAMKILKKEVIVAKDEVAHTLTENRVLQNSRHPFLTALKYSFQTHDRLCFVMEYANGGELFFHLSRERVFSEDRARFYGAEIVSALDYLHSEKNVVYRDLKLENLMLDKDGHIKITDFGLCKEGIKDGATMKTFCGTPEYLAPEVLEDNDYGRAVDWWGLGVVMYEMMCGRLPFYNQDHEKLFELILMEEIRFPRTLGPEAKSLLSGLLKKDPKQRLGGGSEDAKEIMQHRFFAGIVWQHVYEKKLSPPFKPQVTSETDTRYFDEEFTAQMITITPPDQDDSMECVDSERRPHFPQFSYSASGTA
Chain of RAC-gamma serine/threonine-protein kinase (Q9Y243 whole entry, looked up): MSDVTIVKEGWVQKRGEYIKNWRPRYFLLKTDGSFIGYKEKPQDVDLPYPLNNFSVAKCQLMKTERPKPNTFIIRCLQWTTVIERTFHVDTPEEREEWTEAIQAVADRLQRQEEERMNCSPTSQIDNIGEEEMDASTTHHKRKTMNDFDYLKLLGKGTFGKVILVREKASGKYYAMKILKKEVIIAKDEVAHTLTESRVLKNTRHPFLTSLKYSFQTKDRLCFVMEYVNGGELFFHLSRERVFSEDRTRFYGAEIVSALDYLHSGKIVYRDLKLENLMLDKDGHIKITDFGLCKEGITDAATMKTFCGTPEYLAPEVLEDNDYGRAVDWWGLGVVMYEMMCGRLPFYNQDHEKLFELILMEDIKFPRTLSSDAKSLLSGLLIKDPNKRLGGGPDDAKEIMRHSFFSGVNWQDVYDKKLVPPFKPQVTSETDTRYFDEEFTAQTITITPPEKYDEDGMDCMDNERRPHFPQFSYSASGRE

Row | SMILES | IC50 [1] [µM] | IC50 [2] [µM] | IC50 [3] [µM]
1 | Cc1nc2ccccc2n1C1CCN(Cc2ccc(-c3ncc(C#N)cc3-c3ccccc3)cc2)CC1 | 7.41 | > 50 | 18.4
2 | Cc1ccc2[nH]c(C3CCN(Cc4ccc(-c5ncc(C#N)cc5-c5ccccc5)cc4)CC3)nc2c1 | 2.87 | > 50 | 11.4
3 | Cn1nnnc1-c1cnc(-c2ccc(CN3CCC(n4c(=O)[nH]c5ccccc54)CC3)cc2)c(-c2ccccc2)c1 | 1.77 | – | 0.613
4 | Cc1nc2ccccc2n1C1CCN(Cc2ccc(-c3ncc(-c4nn[nH]n4)cc3-c3ccccc3)cc2)CC1 | 6.91 | > 50 | 2.75
5 | Oc1nc2ccccc2n1C1CCN(Cc2ccc(-c3nc4ccccc4cc3-c3ccccc3)cc2)CC1 | 0.365 | > 50 | 1.21
6 | N#Cc1cnc(-c2ccc(CNCc3ccc(-c4csnn4)cc3)cc2)c(-c2ccccc2)c1 | 1.29 | > 50 | 4.81
7 | N#Cc1cnc(-c2ccc(CN3CCC(n4cnc5ccccc54)CC3)cc2)c(-c2ccccc2)c1 | 4.4 | > 50 | 13
8 | c1ccc(-c2cc(-c3nn[nH]n3)cnc2-c2ccc(CNCc3ccc(-c4csnn4)cc3)cc2)cc1 | 0.177 | > 50 | 0.248
9 | Oc1nc2ccccc2n1C1CCN(Cc2ccc(-c3cc4ccccc4nc3-c3ccccc3)cc2)CC1 | 3.14 | > 50 | 33.7
10 | Cc1ccc2[nH]c(C3CCN(Cc4ccc(-c5ncc(-c6nn[nH]n6)cc5-c5ccccc5)cc4)CC3)nc2c1 | 0.763 | > 50 | 0.422
11 | O=c1[nH]c2ccccc2n1C1CCN(Cc2ccc(-c3ncc(-c4nnn[nH]4)cc3-c3ccccc3)cc2)CC1 | 0.273 | > 50 | 0.157
12 | c1ccc(-c2cc(-c3nn[nH]n3)cnc2-c2ccc(CN3CCC(n4cnc5ccccc54)CC3)cc2)cc1 | 4.24 | > 50 | 1.96
13 | c1ccc(-c2cc(-c3nn[nH]n3)cnc2-c2ccc(CN3CCC(c4nc5ccccc5[nH]4)CC3)cc2)cc1 | 3.32 | > 50 | 1.5
14 | Fc1ccc2[nH]c(C3CCN(Cc4ccc(-c5ncc(-c6nn[nH]n6)cc5-c5ccccc5)cc4)CC3)nc2c1 | 0.239 | > 50 | 1.72
15 | N#Cc1cnc(-c2ccc(CN3CCC(n4c(=O)[nH]c5ccccc54)CC3)cc2)c(-c2ccccc2)c1 | 0.762 | > 50 | 3.14
16 | N#Cc1cnc(-c2ccc(CN3CCC(c4nc5cc(F)ccc5[nH]4)CC3)cc2)c(-c2ccccc2)c1 | 0.865 | > 50 | 6.65
17 | N#Cc1cnc(-c2ccc(CN3CCC(c4nc5ccccc5[nH]4)CC3)cc2)c(-c2ccccc2)c1 | 1.47 | > 50 | 8.74
